Measured values: ChEMBL document CHEMBL1136339, “The C-4 stereochemistry of leucocyanidin substrates for anthocyanidin synthase affects product selectivity” (2003)

Columns and labels:
[1] = Specific activity of 14CO2 formation from 1-[14C]-2OG in presence of anthocyanin synthase(ANS); type: functional
[2] = Specific activity of 14CO2 formation from 1-[14C]-2OG corrected for uncoupled turnover in presence of anthocyanin synthase(ANS); type: functional

Structure (SMILES)	Specific activity [1] [ukat kg-1]	Specific activity [2] [ukat kg-1]
Oc1cc(O)c2c(c1)O[C@H](c1ccc(O)c(O)c1)[C@@H](O)[C@H]2O	181.5	138
Oc1cc(O)c2c(c1)O[C@H](c1ccc(O)c(O)c1)[C@@H](O)[C@@H]2O	385	342
Oc1cc(O)c2c(c1)O[C@@H](c1ccc(O)c(O)c1)[C@H](O)[C@@H]2O.Oc1cc(O)c2c(c1)O[C@H](c1ccc(O)c(O)c1)[C@@H](O)[C@H]2O (racemic)	84.1	41
Oc1cc(O)c2c(c1)O[C@@H](c1ccc(O)c(O)c1)[C@H](O)[C@H]2O.Oc1cc(O)c2c(c1)O[C@H](c1ccc(O)c(O)c1)[C@@H](O)[C@@H]2O (racemic)	188.4	145
